Laboratory results as given in ChEMBL document CHEMBL3734705, “Synthesis and in vitro cytotoxicity of novel C-12 substituted-14-deoxy-andrographolide derivatives as potent anti-cancer agents” (2015).

Experiments:
[1] = Cytotoxicity against human PC3 cells assessed as growth level at 10 uM after 48 hrs by SRB assay; type: functional, PC-3
[2] = system: SK-MEL-28; assay: Cytotoxicity against human SK-MEL-28 cells assessed as growth inhibition at 10 uM after 48 hrs by SRB assay; type: functional; conditions: SK-MEL-28, 48 h, read-out: GI
[3] = system: NCI-H522; assay: Cytotoxicity against human NCI-H522 cells assessed as growth level at 10 uM after 48 hrs by SRB assay; type: functional
[4] = Cytotoxicity against human NCI-ADR-RES cells assessed as growth inhibition at 10 uM after 48 hrs by SRB assay; type: functional; conditions: read-out: GI
[5] = Cytotoxicity against human BT549 cells assessed as growth level at 10 uM after 48 hrs by SRB assay; type: functional, BT-549
[6] = system: MCF7; assay: Cytotoxicity against human MCF7 cells assessed as growth level at 10 uM after 48 hrs by SRB assay; type: functional
[7] = Cytotoxicity against human SF539 cells assessed as growth level at 10 uM after 48 hrs by SRB assay; type: functional, SF-539
[8] = system: M14; assay: Cytotoxicity against human M14 cells assessed as growth inhibition at 10 uM after 48 hrs by SRB assay; type: functional; conditions: M14, 48 h, read-out: GI
[9] = system: M14; assay: Cytotoxicity against human M14 cells assessed as growth level at 10 uM after 48 hrs by SRB assay; type: functional
[10] = Cytotoxicity against human TK10 cells assessed as growth inhibition at 10 uM after 48 hrs by SRB assay; type: functional; conditions: TK-10, 48 h, read-out: GI
[11] = system: K562; assay: Cytotoxicity against human K562 cells assessed as growth level at 10 uM after 48 hrs by SRB assay; type: functional
[12] = Cytotoxicity against human HOP62 cells assessed as growth inhibition at 10 uM after 48 hrs by SRB assay; type: functional; conditions: HOP-62, 48 h, read-out: GI
[13] = Cytotoxicity against human RXF393 cells assessed as growth inhibition at 10 uM after 48 hrs by SRB assay; type: functional; conditions: RXF 393, 48 h, read-out: GI
[14] = Cytotoxicity against human UACC257 cells assessed as growth inhibition at 10 uM after 48 hrs by SRB assay; type: functional; conditions: UACC-257, 48 h, read-out: GI
[15] = system: MDA-MB-231; assay: Cytotoxicity against human MDA-MB-231 cells assessed as growth level at 10 uM after 48 hrs by SRB assay; type: functional
[16] = Cytotoxicity against human UO31 cells assessed as growth inhibition at 10 uM after 48 hrs by SRB assay; type: functional; conditions: UO-31, 48 h, read-out: GI
[17] = system: U-251; assay: Cytotoxicity against human U251 cells assessed as growth inhibition at 10 uM after 48 hrs by SRB assay; type: functional; conditions: U-251, 48 h, read-out: GI
[18] = system: SK-MEL-28; assay: Cytotoxicity against human SK-MEL-28 cells assessed as growth level at 10 uM after 48 hrs by SRB assay; type: functional
[19] = system: A549; assay: Cytotoxicity against human A549 cells assessed as growth level at 10 uM after 48 hrs by SRB assay; type: functional
[20] = Cytotoxicity against human DU145 cells assessed as growth level at 10 uM after 48 hrs by SRB assay; type: functional, DU-145
[21] = system: A498; assay: Cytotoxicity against human A498 cells assessed as growth inhibition at 10 uM after 48 hrs by SRB assay; type: functional; conditions: A498, 48 h, read-out: GI
[22] = Cytotoxicity against human SNB75 cells assessed as growth inhibition at 10 uM after 48 hrs by SRB assay; type: functional; conditions: SNB-75, 48 h, read-out: GI
[23] = system: EKVX; assay: Cytotoxicity against human EKVX cells assessed as growth inhibition at 10 uM after 48 hrs by SRB assay; type: functional; conditions: read-out: GI
[24] = system: 786-0; assay: Cytotoxicity against human 786-0 cells assessed as growth inhibition at 10 uM after 48 hrs by SRB assay; type: functional; conditions: 786-0, 48 h, read-out: GI
[25] = system: NCI-H460; assay: Cytotoxicity against human NCI-H460 cells assessed as growth level at 10 uM after 48 hrs by SRB assay; type: functional
[26] = Cytotoxicity against human SF295 cells assessed as growth level at 10 uM after 48 hrs by SRB assay; type: functional, SF-295
[27] = Cytotoxicity against human HCT116 cells assessed as growth inhibition at 10 uM after 48 hrs by SRB assay; type: functional; conditions: HCT-116, 48 h, read-out: GI
[28] = Cytotoxicity against human SKOV3 cells assessed as growth level at 10 uM after 48 hrs by SRB assay; type: functional, SK-OV-3
[29] = Cytotoxicity against human HCT15 cells assessed as growth level at 10 uM after 48 hrs by SRB assay; type: functional, HCT-15
[30] = Cytotoxicity against human Caki1 cells assessed as growth inhibition at 10 uM after 48 hrs by SRB assay; type: functional; conditions: CAKI-1, 48 h, read-out: GI
[31] = Cytotoxicity against human Hs578T cells assessed as growth inhibition at 10 uM after 48 hrs by SRB assay; type: functional; conditions: Hs-578T, read-out: GI
[32] = Cytotoxicity against human HL-60(TB) cells assessed as growth level at 10 uM after 48 hrs by SRB assay; type: functional
[33] = Cytotoxicity against human OVCAR3 cells assessed as growth inhibition at 10 uM after 48 hrs by SRB assay; type: functional; conditions: OVCAR-3, 48 h, read-out: GI
[34] = system: ACHN; assay: Cytotoxicity against human ACHN cells assessed as growth level at 10 uM after 48 hrs by SRB assay; type: functional
[35] = Cytotoxicity against human COLO205 cells assessed as growth inhibition at 10 uM after 48 hrs by SRB assay; type: functional; conditions: COLO 205, 48 h, read-out: GI
[36] = system: NCI-H226; assay: Cytotoxicity against human NCI-H226 cells assessed as growth level at 10 uM after 48 hrs by SRB assay; type: functional
[37] = system: KM12; assay: Cytotoxicity against human KM12 cells assessed as growth inhibition at 10 uM after 48 hrs by SRB assay; type: functional; conditions: KM12, 48 h, read-out: GI
[38] = Cytotoxicity against human OVCAR4 cells assessed as growth inhibition at 10 uM after 48 hrs by SRB assay; type: functional; conditions: OVCAR-4, 48 h, read-out: GI
[39] = system: MDA-MB-231; assay: Cytotoxicity against human MDA-MB-231 cells assessed as growth inhibition at 10 uM after 48 hrs by SRB assay; type: functional; conditions: MDA-MB-231, 48 h, read-out: GI
[40] = Cytotoxicity against human OVCAR3 cells assessed as growth level at 10 uM after 48 hrs by SRB assay; type: functional, OVCAR-3
[41] = system: A549; assay: Cytotoxicity against human A549 cells assessed as growth inhibition at 10 uM after 48 hrs by SRB assay; type: functional; conditions: A549, 48 h, read-out: GI
[42] = system: T47D; assay: Cytotoxicity against human T47D cells assessed as growth inhibition at 10 uM after 48 hrs by SRB assay; type: functional; conditions: read-out: GI
[43] = system: SN12C; assay: Cytotoxicity against human SN12C cells assessed as growth inhibition at 10 uM after 48 hrs by SRB assay; type: functional; conditions: read-out: GI

Work on `C=C1CC[C@@H]2[C@](C)(COC(C)=O)[C@H](OC(C)=O)CC[C@@]2(C)[C@@H]1CC(NCc1ccc(F)cc1)C1=CCOC1=O` (mixture of isomers) yielded an Activity [1] of 20.82%, an inhibition of growth at 10 µM [2] of 22.2% and an Activity [3] of 20.93%. The inhibition of growth at 10 µM [4] was 71.8%, the Activity [5] was 28.73% and the Activity [6] was 16.58%. For the same molecule, the Activity [7] was 64.45%, the inhibition of growth at 10 µM [8] was 62.7% and the Activity [9] was 37.3%. The inhibition of growth at 10 µM [10] was 33.4%, the Activity [11] was 18.84% and the inhibition of growth at 10 µM [12] was 21.2%. For the same molecule, the inhibition of growth at 10 µM [13] was 19.4%, the inhibition of growth at 10 µM [14] was 54.2% and the Activity [15] was 60.86%. It also gave an inhibition of growth at 10 µM [16] of 68.7%, an inhibition of growth at 10 µM [17] of 52% and an Activity [18] of 77.79%. The Activity [19] was 57.9%, the Activity [20] was 69.82% and the inhibition of growth at 10 µM [21] was 48.3%. The inhibition of growth at 10 µM [22] was 41.9%, the inhibition of growth at 10 µM [23] was 50% and the inhibition of growth at 10 µM [24] was 13.2%. The Activity [25] was 55.22%, the Activity [26] was 96.13% and the inhibition of growth at 10 µM [27] was 66.3%. For the same molecule, the Activity [28] was 94.32%, the Activity [29] was 37.04% and the inhibition of growth at 10 µM [30] was 54%. For the same molecule, the inhibition of growth at 10 µM [31] was 27.5%, the Activity [32] was -9.52% and the inhibition of growth at 10 µM [33] was 76.3%. For the same molecule, the Activity [34] was 50.93%, the inhibition of growth at 10 µM [35] was 57.9% and the Activity [36] was 40.13%. For the same molecule, the inhibition of growth at 10 µM [37] was 53.5%, the inhibition of growth at 10 µM [38] was 69.1% and the inhibition of growth at 10 µM [39] was 39.1%. For the same molecule, the Activity [40] was 23.7%, the inhibition of growth at 10 µM [41] was 42.1% and the inhibition of growth at 10 µM [42] was 73.4%. For the same molecule, the inhibition of growth at 10 µM [43] was 53.8%.
With `C=C1CC[C@@H]2[C@](C)(COC(C)=O)[C@H](OC(C)=O)CC[C@@]2(C)[C@@H]1CC(NC1CCCC1)C1=CCOC1=O` (stereo partly specified) the Activity [1] was 44.7%, the inhibition of growth at 10 µM [2] was 8.95% and the Activity [3] was 45.56%. The inhibition of growth at 10 µM [4] was 31.5%, the Activity [5] was 55.62% and the Activity [6] was 72.42%. The Activity [7] was 89.44%, the inhibition of growth at 10 µM [8] was 20.9% and the Activity [9] was 79.06%. It also gave an inhibition of growth at 10 µM [10] of 12.9%, an Activity [11] of 48.3% and an inhibition of growth at 10 µM [12] of 5.59%. It also gave an inhibition of growth at 10 µM [13] of 22%, an inhibition of growth at 10 µM [14] of 61.6% and an Activity [15] of 80.39%. The inhibition of growth at 10 µM [16] was 43.9%, the inhibition of growth at 10 µM [17] was 24.6% and the Activity [18] was 91.05%. The Activity [19] was 73.55%, the Activity [20] was 91.96% and the inhibition of growth at 10 µM [21] was 32%. For the same molecule, the inhibition of growth at 10 µM [22] was 32%, the inhibition of growth at 10 µM [23] was 47.6% and the inhibition of growth at 10 µM [24] was 7.49%. It also gave an Activity [25] of 74.77%, an Activity [26] of 90.39% and an inhibition of growth at 10 µM [27] of 55.3%. For the same molecule, the Activity [28] was 87.88%, the Activity [29] was 67.03% and the inhibition of growth at 10 µM [30] was 39.3%. For the same molecule, the inhibition of growth at 10 µM [31] was 25.1%, the Activity [32] was 42.67% and the inhibition of growth at 10 µM [33] was 31%. For the same molecule, the Activity [34] was 78.47%, the inhibition of growth at 10 µM [35] was 24.8% and the Activity [36] was 84.46%. It also gave an inhibition of growth at 10 µM [37] of 25.5%, an inhibition of growth at 10 µM [38] of 41.6% and an inhibition of growth at 10 µM [39] of 19.6%. It also gave an Activity [40] of 68.98%, an inhibition of growth at 10 µM [41] of 26.4% and an inhibition of growth at 10 µM [42] of 49.1%. It also gave an inhibition of growth at 10 µM [43] of 21.5%.
